Experimental data from PMC10866072, “Design, synthesis, molecular modelling and biological evaluation of novel 6-amino-5-cyano-2-thiopyrimidine derivatives as potent anticancer agents against leukemia and apoptotic inducers” (Journal of Enzyme Inhibition and Medicinal Chemistry, 2024).

Experiments:
T-47D = type: cell-based; details: one dose 10^-5 M, 48 h
OVCAR-8 = type: cell-based; details: one dose 10^-5 M, 48 h
RPMI-8226 = type: cell-based; details: one dose 10^-5 M, 48 h
COLO 205 = type: cell-based; details: one dose 10^-5 M, 48 h
786-0 = type: cell-based; details: one dose 10^-5 M, 48 h
SR = type: cell-based; details: one dose 10^-5 M, 48 h
SK-MEL-5 = type: cell-based; details: one dose 10^-5 M, 48 h
A549/ATCC = type: cell-based; details: one dose 10^-5 M, 48 h
CCRF-CEM = type: cell-based; details: one dose 10^-5 M, 48 h
HOP-62 = type: cell-based; details: one dose 10^-5 M, 48 h
OVCAR-3 = type: cell-based; details: one dose 10^-5 M, 48 h
PC-3 = type: cell-based; details: one dose 10^-5 M, 48 h
HT29 = type: cell-based; details: one dose 10^-5 M, 48 h
SNB-19 = type: cell-based; details: one dose 10^-5 M, 48 h
M14 = type: cell-based; details: one dose 10^-5 M, 48 h
ACHN = type: cell-based; details: one dose 10^-5 M, 48 h
KM12 = type: cell-based; details: one dose 10^-5 M, 48 h
SK-MEL-2 = type: cell-based; details: one dose 10^-5 M, 48 h
NCI-H226 = type: cell-based; details: one dose 10^-5 M, 48 h
MDA-MB-468 = type: cell-based; details: one dose 10^-5 M, 48 h
UO-31 = type: cell-based; details: one dose 10^-5 M, 48 h
IGROV1 = type: cell-based; details: one dose 10^-5 M, 48 h
SNB-75 = type: cell-based; details: one dose 10^-5 M, 48 h
MDA-MB-435 = type: cell-based; details: one dose 10^-5 M, 48 h
HS 578T = type: cell-based; details: one dose 10^-5 M, 48 h; HS 578T
MOLT-4 = type: cell-based; details: one dose 10^-5 M, 48 h
A498 = type: cell-based; details: one dose 10^-5 M, 48 h
MDA-MB-231/ATCC = type: cell-based; details: one dose 10^-5 M, 48 h
HL-60(TB) = type: cell-based; details: one dose 10^-5 M, 48 h
UACC-257 = type: cell-based; details: one dose 10^-5 M, 48 h
SF-539 = type: cell-based; details: one dose 10^-5 M, 48 h
OVCAR-4 = type: cell-based; details: one dose 10^-5 M, 48 h
MALME-3M = type: cell-based; details: one dose 10^-5 M, 48 h
SK-OV-3 = type: cell-based; details: one dose 10^-5 M, 48 h
UACC-62 = type: cell-based; details: one dose 10^-5 M, 48 h
SF-295 = type: cell-based; details: one dose 10^-5 M, 48 h
NCI-H460 = type: cell-based; details: one dose 10^-5 M, 48 h
HOP-92 = type: cell-based; details: one dose 10^-5 M, 48 h
SW-620 = type: cell-based; details: one dose 10^-5 M, 48 h
BT-549 = type: cell-based; details: one dose 10^-5 M, 48 h
NCI/ADR-RES = type: cell-based; details: one dose 10^-5 M, 48 h
CAKI-1 = type: cell-based; details: one dose 10^-5 M, 48 h
HCC-2998 = type: cell-based; details: one dose 10^-5 M, 48 h
SF-268 = type: cell-based; details: one dose 10^-5 M, 48 h
DU-145 = type: cell-based; details: one dose 10^-5 M, 48 h
TK-10 = type: cell-based; details: one dose 10^-5 M, 48 h
MCF7 = type: cell-based; details: one dose 10^-5 M, 48 h
NCI-H23 = type: cell-based; details: one dose 10^-5 M, 48 h
SN12C = type: cell-based, human; details: one dose 10^-5 M, 48 h
[1] = system: full NCI 60 cell lines panel
HCT-15 = type: cell-based; details: one dose 10^-5 M, 48 h
SK-MEL-28 = type: cell-based; details: one dose 10^-5 M, 48 h
K-562 = type: cell-based; details: one dose 10^-5 M, 48 h
HCT-116 = type: cell-based; details: one dose 10^-5 M, 48 h
EKVX = type: cell-based; details: one dose 10^-5 M, 48 h
OVCAR-5 = type: cell-based; details: one dose 10^-5 M, 48 h
LOX IMVI = type: cell-based; details: one dose 10^-5 M, 48 h
NCI-H522 = type: cell-based; details: one dose 10^-5 M, 48 h
U251 = type: cell-based; details: one dose 10^-5 M, 48 h

3-Amino-4-[4-(dimethylamino)phenyl]-1H-pyrazolo[3,4-d]pyrimidine-6-thiol [Compound 3a]
% growth (T-47D): 102.75%
% growth (OVCAR-8): 104.18%
% growth (RPMI-8226): 86.49%
% growth (COLO 205): 120.31%
% growth (786-0): 109.39%
% growth (SR): 90.80%
% growth (SK-MEL-5): 104.39%
% growth (A549/ATCC): 110.12%
% growth (CCRF-CEM): 77.55%
% growth (HOP-62): 108.87%
% growth (OVCAR-3): 116.36%
% growth (PC-3): 78.25%
% growth (HT29): 108.47%
% growth (SNB-19): 101.52%
% growth (M14): 99.09%
% growth (ACHN): 92.14%
% growth (KM12): 97.17%
% growth (SK-MEL-2): 111.64%
% growth (NCI-H226): 95.19%
% growth (MDA-MB-468): 115.89%
% growth (UO-31): 58.31%
% growth (IGROV1): 104.23%
% growth (SNB-75): 116.67%
% growth (MDA-MB-435): 109.49%
% growth (HS 578T): 108.39%
% growth (MOLT-4): 100.00%
% growth (A498): 162.31%
% growth (MDA-MB-231/ATCC): 98.99%
% growth (HL-60(TB)): 89.88%
% growth (UACC-257): 110.00%
% growth (SF-539): 108.53%
% growth (OVCAR-4): 103.10%
% growth (MALME-3M): 102.71%
% growth (SK-OV-3): 107.23%
% growth (UACC-62): 97.30%
% growth (SF-295): 105.95%
% growth (NCI-H460): 108.52%
% growth (HOP-92): 116.09%
% growth (SW-620): 115.71%
% growth (BT-549): 95.32%
% growth (NCI/ADR-RES): 103.45%
% growth (CAKI-1): 92.97%
% growth (HCC-2998): 108.59%
% growth (SF-268): 105.34%
% growth (DU-145): 116.81%
% growth (TK-10): 119.65%
% growth (MCF7): 88.54%
% growth (NCI-H23): 98.77%
% growth (SN12C): 100.69%
activity on all 60 cancer cell lines tested (in words) ([1]; one dose): weak activity
Mean % growth ([1]; one dose 10^-5 M, 48 h, mean over all cell lines): 103.40%
% growth (HCT-15): 95.53%
% growth (SK-MEL-28): 112.69%
% growth (K-562): 102.48%
% growth (HCT-116): 101.11%
% growth (EKVX): 97.12%
% growth (OVCAR-5): 107.30%
% growth (LOX IMVI): 97.52%
% growth (NCI-H522): 92.08%
% growth (U251): 109.49%
